Test results as given in article PMC11191402, “High-Affinity NIR-Fluorescent Inhibitors for Tumor Imaging via Carbonic Anhydrase IX” (Bioconjugate Chemistry, 2024).

How the values were obtained:
human recombinant CAII = molecular target: T1, human recombinant CAII (Homo sapiens, UniProt P00918); design: method as in PMID 36271018; details: FTSA, 37 °C, pH 7.0; cited from earlier work
T1 construct: made in house; host or cells: bacterial expression system

human recombinant CAVII = molecular target: T2, human recombinant CAVII (Homo sapiens, UniProt P43166); design: method as in PMID 36271018; details: FTSA, 37 °C, pH 7.0; cited from earlier work
T2 construct: made in house; host or cells: bacterial expression system

human recombinant CAXII = molecular target: T3, human recombinant CAXII (Homo sapiens, UniProt O43570); design: method as in PMID 36271018; details: FTSA, 37 °C, pH 7.0; cited from earlier work
T3 construct: Most isozymes were truncated, and only the catalytic domains of the proteins were produced; made in house; host or cells: bacterial expression system

human recombinant CAXIV = molecular target: T4, human recombinant CAXIV (Homo sapiens, UniProt Q9ULX7); design: method as in PMID 36271018; details: FTSA, 37 °C, pH 7.0; cited from earlier work
T4 construct: Most isozymes were truncated, and only the catalytic domains of the proteins were produced; made in house; host or cells: bacterial expression system

human recombinant CAVA = molecular target: T5, human recombinant CAVA (Homo sapiens, UniProt P35218); design: method as in PMID 36271018; details: FTSA, 37 °C, pH 7.0; cited from earlier work
T5 construct: Most isozymes were truncated, and only the catalytic domains of the proteins were produced; made in house; host or cells: bacterial expression system

human recombinant CAIV = molecular target: T6, human recombinant CAIV (Homo sapiens, UniProt P22748); design: method as in PMID 36271018; details: FTSA, 37 °C, pH 7.0; cited from earlier work
T6 construct: Most isozymes were truncated, and only the catalytic domains of the proteins were produced; made in house; host or cells: bacterial expression system

human recombinant CAIII = molecular target: T7, human recombinant CAIII (Homo sapiens, UniProt P07451); design: method as in PMID 36271018; details: FTSA, 37 °C, pH 7.0; cited from earlier work
T7 construct: made in house; host or cells: bacterial expression system

human recombinant CAVB = molecular target: T8, human recombinant CAVB (Homo sapiens, UniProt Q9Y2D0); design: method as in PMID 36271018; details: FTSA, 37 °C, pH 7.0; cited from earlier work
T8 construct: Most isozymes were truncated, and only the catalytic domains of the proteins were produced; made in house; host or cells: bacterial expression system

human recombinant CAVI = molecular target: T9, human recombinant CAVI (Homo sapiens, UniProt P23280); design: method as in PMID 36271018; details: FTSA, 37 °C, pH 7.0; cited from earlier work
T9 construct: Most isozymes were truncated, and only the catalytic domains of the proteins were produced; made in house; host or cells: bacterial expression system

[1] = molecular target: T10, CAIX expressed on cell membranes of HeLa cells (Homo sapiens, UniProt Q16790); test: Fluorescence microscopy staining of live HeLa cells; format: cell-based; details: 250 nM compound; pCMV-CAIX-transfected cells, normoxia
T10 construct: an open reading frame for the full-length CAIX protein (1–459 amino acids) without a tag; expressed in transfected cells; host or cells: HeLa cells transfected with pCMV-CAIX (TurboFect), normoxia
Description: Live HeLa cell culture was used for visualization of the NIR-fluorescent compound binding to CAIX expressed on cell membranes (Figures 3 and S2). […] Hypoxic conditions were insufficient for CAIX-specific fluorescence detection (Figure S3). Transfected cells expressed 10-fold more CAIX protein than cells grown under hypoxia, as determined by dosing the fluorescein-containing compound GZ19-32. […] We should point out that microphotographs in Figures 3 and S2 were taken at different exposure times to ensure good visualization quality. Nevertheless, all four compounds were suitable for direct visualization of CAIX expressed on transfected cell membranes.
For visualization of CAIX in live cells, HeLa cells were seeded in 12-well plates, and the next day they were transfected with the pCMV-CAIX plasmid to induce CAIX expression under normoxia. The TurboFect Transfection Reagent (Thermo Fisher) was used for this purpose according to manufacturer’s directions. Cells were stained and visualized next day after transfection. Nontransfected cells, grown under normoxia, were used as a control. For the induction of CAIX expression without transfection, cells were cultured under hypoxia for 3 days.
For cell imaging, live cells were incubated with the recombinant monoclonal antibody to CAIX (M75) (Absolute Antibody, #Ab00414–1.1) in the CO2 incubator for 30 min. The antibody stock solution (1 mg/mL) was used at a dilution of 1:150 in FluoroBright (FB)(Thermo Fisher) medium. After washing (3 × 5 min with DMEM in RT, gentle rock), cells were incubated with secondary Alexa Fluor 488 goat antimouse antibodies (2 mg/mL, Thermo Fisher), at a dilution of 1:200 in FB, in a CO2 incubator for 30 min. After washing (3 × 5 min with DMEM in RT and 2 × 1 min with PBS), cells were incubated with NIR-fluorescent inhibitors ([…] in PBS) in a CO2 incubator for 5–8 min. After washing (2 min + 2 × 1 min with PBS), PBS was replaced by FB, and 15 μL of NucBlue Live Cell Stain ReadyProbes reagent (Thermo Fisher) was added per well. After 5 min, cells were observed and photographed using an automated fluorescence microscope EVOS FL Auto (Thermo Fisher).

T3 sequence (O43570 30-289 limits assumed): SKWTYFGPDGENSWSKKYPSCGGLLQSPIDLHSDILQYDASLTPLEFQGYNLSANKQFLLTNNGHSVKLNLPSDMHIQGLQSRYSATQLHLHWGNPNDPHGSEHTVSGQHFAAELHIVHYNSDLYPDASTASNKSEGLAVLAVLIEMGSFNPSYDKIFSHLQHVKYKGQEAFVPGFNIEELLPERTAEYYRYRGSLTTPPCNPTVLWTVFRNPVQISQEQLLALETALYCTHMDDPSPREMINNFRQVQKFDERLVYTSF
T5 sequence (P35218 39-296 limits assumed): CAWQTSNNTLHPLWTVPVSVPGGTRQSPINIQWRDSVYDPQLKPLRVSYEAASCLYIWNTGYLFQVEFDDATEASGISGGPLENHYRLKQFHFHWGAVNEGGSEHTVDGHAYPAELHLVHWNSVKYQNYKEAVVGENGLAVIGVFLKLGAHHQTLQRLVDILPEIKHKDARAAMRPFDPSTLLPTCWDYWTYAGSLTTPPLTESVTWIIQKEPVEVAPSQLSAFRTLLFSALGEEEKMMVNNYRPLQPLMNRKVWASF
T6 sequence (P22748 21-285 limits assumed): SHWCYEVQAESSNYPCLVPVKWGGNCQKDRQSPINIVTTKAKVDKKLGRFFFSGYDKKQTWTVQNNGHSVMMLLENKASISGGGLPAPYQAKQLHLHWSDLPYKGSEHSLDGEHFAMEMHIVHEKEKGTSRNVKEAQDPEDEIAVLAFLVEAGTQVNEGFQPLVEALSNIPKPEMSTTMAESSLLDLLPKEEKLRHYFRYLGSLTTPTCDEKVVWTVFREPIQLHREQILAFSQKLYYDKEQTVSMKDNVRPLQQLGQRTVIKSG
T8 sequence (Q9Y2D0 37-296 limits assumed): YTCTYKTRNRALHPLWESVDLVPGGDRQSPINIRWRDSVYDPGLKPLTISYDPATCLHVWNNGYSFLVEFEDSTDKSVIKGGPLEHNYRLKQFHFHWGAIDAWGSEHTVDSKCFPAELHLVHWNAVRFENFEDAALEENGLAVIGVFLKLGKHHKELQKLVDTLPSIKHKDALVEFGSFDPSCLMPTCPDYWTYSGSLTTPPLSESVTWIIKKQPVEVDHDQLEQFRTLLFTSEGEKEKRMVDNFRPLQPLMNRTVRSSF
T2 sequence (P43166 whole entry): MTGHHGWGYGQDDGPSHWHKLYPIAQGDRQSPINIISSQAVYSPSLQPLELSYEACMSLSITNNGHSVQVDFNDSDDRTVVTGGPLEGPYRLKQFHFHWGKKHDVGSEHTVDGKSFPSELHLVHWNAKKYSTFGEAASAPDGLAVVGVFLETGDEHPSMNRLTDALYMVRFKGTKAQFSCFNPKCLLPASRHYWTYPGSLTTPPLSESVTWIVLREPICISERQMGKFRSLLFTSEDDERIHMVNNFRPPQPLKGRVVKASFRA
T7 sequence (P07451 whole entry): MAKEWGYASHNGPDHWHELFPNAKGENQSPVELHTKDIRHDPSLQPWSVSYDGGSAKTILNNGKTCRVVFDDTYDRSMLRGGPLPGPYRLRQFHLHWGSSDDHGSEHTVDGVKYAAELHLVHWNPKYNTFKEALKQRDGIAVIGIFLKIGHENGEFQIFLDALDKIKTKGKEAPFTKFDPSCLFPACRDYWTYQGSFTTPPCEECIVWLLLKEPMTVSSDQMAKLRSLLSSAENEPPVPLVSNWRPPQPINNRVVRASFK
T4 sequence (Q9ULX7 20-278 limits assumed): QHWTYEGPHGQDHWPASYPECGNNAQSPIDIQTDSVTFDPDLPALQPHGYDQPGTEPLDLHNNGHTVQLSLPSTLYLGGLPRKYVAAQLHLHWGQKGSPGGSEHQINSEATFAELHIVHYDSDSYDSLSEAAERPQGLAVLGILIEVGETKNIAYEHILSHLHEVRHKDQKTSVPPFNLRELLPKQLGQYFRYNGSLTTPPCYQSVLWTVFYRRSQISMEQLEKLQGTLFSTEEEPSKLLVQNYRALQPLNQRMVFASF
T9 sequence (P23280 21-278 limits assumed): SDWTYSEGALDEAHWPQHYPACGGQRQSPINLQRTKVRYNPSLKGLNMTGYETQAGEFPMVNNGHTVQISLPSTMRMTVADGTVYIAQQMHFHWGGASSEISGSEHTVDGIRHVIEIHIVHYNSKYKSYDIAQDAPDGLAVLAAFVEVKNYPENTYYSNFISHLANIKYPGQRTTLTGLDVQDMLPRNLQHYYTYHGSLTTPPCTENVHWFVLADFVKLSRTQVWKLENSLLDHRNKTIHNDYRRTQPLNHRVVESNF

| melting point [°C] | staining of HeLa cells (NIR fluorescence microscopy) [1] | SMILES | Kd (human recombinant CAII) [µM] | Kd (human recombinant CAVII) [µM] | Kd (human recombinant CAXII) [µM] | Kd (human recombinant CAXIV) [µM] | Kd (human recombinant CAVA) [µM] | Kd (human recombinant CAIV) [µM] | Kd (human recombinant CAIII) [µM] | Kd (human recombinant CAVB) [µM] | Kd (human recombinant CAVI) [µM] |
| --- | --- | --- | --- | --- | --- | --- | --- | --- | --- | --- | --- |
| 143 to 144 |  | NS(=O)(=O)c1c(F)c(F)c(S(=O)(=O)CCC(=O)O)c(NC2CCCCCCC2)c1F [GZ18-23, 3-((2-(Cyclooctylamino)-3,5,6-trifluoro-4-sulfamoylphenyl)sulfonyl)propanoic Acid] | 0.2 | 0.04 | 0.0014 | 0.003 | 10 | 0.1 | ≥ 200 | 0.2 | 0.1 |
| 225 to 228 | no visual response on transfected cells | CC1(C)C(/C=C/C2=C(Oc3ccc(CCC(=O)O)cc3)C(=C/C=C3\N(CCCCS(=O)(=O)[O-])c4ccccc4C3(C)C)/CCC2)=[N+](CCCCS(=O)(=O)[O-])c2ccccc21.[Na+] [GZ21-20, Sodium 4-((Z)-2-((E)-2-(2-(4-(2-Carboxyethyl)phenoxy)-3-((E)-2-(3,3-dimethyl-1-(4-sulfonatobutyl)-3H-indol-1-ium-2-yl)vinyl)cyclohex-2-en-1-ylidene)ethylidene)-3,3-dimethylindolin-1-yl)butane-1-sulfonate] |  |  |  |  |  |  |  |  |  |
